Source: PMC4057101 (Science (New York, N.Y.), 2013)

Assays:
Type in all cases: biochemical
NphT7 = target: T1, NphT7 (Streptomyces sp. CL190, UniProt D7URV0); assay: steady-state kinetics, coupled assay with PhaB; details: acetyl-CoA starter
T1 sequence (D7URV0 1-329): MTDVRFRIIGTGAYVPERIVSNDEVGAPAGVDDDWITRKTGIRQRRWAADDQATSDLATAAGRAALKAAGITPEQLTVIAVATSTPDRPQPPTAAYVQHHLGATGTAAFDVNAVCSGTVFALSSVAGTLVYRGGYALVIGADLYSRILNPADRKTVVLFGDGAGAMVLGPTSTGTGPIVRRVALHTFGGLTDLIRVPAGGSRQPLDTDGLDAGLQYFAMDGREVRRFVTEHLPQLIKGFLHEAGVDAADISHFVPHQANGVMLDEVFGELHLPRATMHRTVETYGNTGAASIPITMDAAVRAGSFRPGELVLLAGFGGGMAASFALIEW

DEBSMod6+TE = DEBSMod6+TE (Saccharopolyspora erythraea, UniProt Q03133); assay: LC-MS of triketide lactone formation; details: NDK-SNAC, MatB and ATP regeneration
Sequence of DEBSMod6+TE (Q03133 1468-3172): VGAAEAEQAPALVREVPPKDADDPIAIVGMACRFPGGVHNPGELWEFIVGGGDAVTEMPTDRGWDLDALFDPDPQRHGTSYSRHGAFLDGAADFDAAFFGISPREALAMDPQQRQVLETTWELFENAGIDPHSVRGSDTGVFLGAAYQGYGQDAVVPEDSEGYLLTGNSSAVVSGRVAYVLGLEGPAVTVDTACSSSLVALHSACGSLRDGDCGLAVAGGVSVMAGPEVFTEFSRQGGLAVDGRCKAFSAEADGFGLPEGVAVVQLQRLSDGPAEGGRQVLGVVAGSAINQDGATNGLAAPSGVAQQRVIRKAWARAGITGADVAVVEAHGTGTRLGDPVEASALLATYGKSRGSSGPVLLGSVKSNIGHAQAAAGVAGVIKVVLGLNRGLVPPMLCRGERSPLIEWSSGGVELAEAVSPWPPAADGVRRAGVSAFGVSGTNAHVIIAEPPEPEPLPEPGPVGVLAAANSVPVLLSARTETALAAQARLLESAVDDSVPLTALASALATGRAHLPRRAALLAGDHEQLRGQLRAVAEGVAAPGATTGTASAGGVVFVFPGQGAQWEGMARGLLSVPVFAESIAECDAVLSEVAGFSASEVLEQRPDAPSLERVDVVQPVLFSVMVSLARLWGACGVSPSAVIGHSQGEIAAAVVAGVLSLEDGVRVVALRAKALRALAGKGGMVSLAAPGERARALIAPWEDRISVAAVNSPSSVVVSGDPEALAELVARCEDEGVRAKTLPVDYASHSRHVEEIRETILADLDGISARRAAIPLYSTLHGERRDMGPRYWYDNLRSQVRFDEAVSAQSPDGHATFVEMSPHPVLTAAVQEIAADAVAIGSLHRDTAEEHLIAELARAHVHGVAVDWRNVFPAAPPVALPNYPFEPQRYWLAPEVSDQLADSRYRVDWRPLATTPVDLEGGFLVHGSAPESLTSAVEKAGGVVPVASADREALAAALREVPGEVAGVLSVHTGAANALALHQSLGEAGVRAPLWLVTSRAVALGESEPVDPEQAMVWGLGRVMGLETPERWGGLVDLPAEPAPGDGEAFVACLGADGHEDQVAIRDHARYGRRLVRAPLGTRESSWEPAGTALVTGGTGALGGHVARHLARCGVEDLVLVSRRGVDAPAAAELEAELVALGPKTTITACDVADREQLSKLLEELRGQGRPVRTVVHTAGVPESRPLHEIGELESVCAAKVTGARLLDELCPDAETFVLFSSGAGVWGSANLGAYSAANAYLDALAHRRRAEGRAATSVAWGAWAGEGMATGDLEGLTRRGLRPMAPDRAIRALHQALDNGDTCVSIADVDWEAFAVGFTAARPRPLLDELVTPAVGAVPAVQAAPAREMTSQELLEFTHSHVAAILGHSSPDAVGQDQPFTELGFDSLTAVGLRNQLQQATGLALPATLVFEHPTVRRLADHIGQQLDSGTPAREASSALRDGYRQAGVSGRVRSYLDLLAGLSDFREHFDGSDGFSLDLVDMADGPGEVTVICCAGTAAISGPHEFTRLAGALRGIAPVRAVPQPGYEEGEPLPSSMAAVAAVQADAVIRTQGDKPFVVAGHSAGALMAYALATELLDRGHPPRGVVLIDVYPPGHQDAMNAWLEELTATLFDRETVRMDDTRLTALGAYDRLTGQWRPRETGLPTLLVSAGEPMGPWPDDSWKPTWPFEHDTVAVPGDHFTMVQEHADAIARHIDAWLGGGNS

acetate kinase (AckA) = acetate kinase (AckA) (Escherichia coli, UniProt P0A6A3); details: ATP
Sequence of acetate kinase (AckA) (P0A6A3 whole entry): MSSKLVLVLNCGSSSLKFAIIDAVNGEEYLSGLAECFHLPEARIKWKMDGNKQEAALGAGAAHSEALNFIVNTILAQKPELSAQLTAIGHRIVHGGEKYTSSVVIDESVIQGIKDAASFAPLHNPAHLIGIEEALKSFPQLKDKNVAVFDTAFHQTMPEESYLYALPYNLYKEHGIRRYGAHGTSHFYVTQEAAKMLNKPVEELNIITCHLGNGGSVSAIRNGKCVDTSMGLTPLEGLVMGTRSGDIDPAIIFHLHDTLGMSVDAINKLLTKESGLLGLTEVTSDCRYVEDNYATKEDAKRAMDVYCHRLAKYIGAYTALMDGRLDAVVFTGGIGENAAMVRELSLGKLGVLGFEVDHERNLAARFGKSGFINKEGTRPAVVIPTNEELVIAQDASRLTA

PhaB = PhaB (Cupriavidus necator, UniProt P14697); assay: coupled reduction with NphT7; details: substrate formed in situ by NphT7
Sequence of PhaB (P14697 whole entry): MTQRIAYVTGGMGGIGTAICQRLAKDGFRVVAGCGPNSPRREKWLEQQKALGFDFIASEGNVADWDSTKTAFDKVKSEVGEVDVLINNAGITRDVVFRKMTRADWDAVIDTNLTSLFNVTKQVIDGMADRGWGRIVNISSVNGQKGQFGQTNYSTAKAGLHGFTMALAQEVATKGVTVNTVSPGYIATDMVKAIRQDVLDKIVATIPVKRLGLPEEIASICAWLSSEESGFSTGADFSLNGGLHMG

[1] = target: acetyl-CoA carboxylase (ACCase), AccABCD (Escherichia coli, UniProt P0A9Q5+P0ABD5); assay: one-pot carboxylation; details: formed in situ from fluoroacetate by AckA-Pta; 500 μM CoA
Sequence of acetyl-CoA carboxylase (ACCase), AccABCD (P0A9Q5 whole entry): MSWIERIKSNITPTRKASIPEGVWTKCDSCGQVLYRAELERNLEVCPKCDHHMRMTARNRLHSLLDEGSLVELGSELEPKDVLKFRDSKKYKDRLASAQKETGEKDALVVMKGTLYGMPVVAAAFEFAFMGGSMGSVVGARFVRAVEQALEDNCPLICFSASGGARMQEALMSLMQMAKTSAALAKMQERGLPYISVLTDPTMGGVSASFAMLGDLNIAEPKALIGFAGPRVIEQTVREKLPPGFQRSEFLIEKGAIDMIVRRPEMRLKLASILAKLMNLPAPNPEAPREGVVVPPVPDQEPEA
Sequence of acetyl-CoA carboxylase (ACCase), AccABCD (P0ABD5 2-319): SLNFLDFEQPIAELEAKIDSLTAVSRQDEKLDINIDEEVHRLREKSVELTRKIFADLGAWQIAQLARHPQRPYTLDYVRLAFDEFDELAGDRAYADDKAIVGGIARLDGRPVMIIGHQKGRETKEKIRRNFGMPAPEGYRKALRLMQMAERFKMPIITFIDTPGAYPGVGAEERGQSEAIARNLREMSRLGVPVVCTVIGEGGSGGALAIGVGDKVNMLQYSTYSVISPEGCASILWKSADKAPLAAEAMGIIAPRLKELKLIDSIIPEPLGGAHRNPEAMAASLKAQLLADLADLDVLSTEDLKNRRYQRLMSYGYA

In the case of `CC(C)(COP(=O)(O)OP(=O)(O)OC[C@H]1O[C@@H](n2cnc3c(N)ncnc32)[C@H](O)[C@@H]1OP(=O)(O)O)[C@@H](O)C(=O)NCCC(=O)NCCSC(=O)CC(=O)O` [malonyl-CoA], the KM (NphT7) is reported as “Steady-state kinetic parameters for NphT7-catalyzed C–C bond formation”.

`CC(C)(COP(=O)(O)OP(=O)(O)OC[C@H]1O[C@@H](n2cnc3c(N)ncnc32)[C@H](O)[C@@H]1OP(=O)(O)O)[C@@H](O)C(=O)NCCC(=O)NCCSC(=O)C(F)C(=O)O` (some centres unmarked) [fluoromalonyl-CoA] was tested, and the “LC-MS of triketide lactone formation” value (DEBSMod6+TE) was “DEBSMod6+TE is also able to accept the fluorinated monomer in chain extension catalysis” and the KM (NphT7) was “formation of acetofluoroacetyl-CoA using an acetyl-CoA starter and fluoromalonyl-CoA extender”.

In the case of `O=C(O)CF` [fluoroacetate], the KM (acetate kinase (AckA)) is reported as “Analysis of the kinetic parameters for these enzymes with respect to fluorinated substrates”.

`CC(=O)C(F)C(=O)SCCNC(=O)CCNC(=O)[C@H](O)C(C)(C)COP(=O)(O)OP(=O)(O)OC[C@H]1O[C@@H](n2cnc3c(N)ncnc32)[C@H](O)[C@@H]1OP(=O)(O)O` (some centres unmarked) [acetofluoroacetyl-CoA] was tested, and the “coupled reduction with NphT7; 1H and 19F NMR of product” value (PhaB) was “PhaB is capable of efficiently reducing the acetofluoroacetyl-CoA substrate”.

For `CC(=O)O` [acetate], the KM (acetate kinase (AckA)) was “rapidly produce both acetyl- and fluoroacetyl-CoA in nearly quantitative yield”.

With `CC(C)(COP(=O)(O)OP(=O)(O)OC[C@H]1O[C@@H](n2cnc3c(N)ncnc32)[C@H](O)[C@@H]1OP(=O)(O)O)[C@@H](O)C(=O)NCCC(=O)NCCSC(=O)CF` [fluoroacetyl-CoA] the one-pot carboxylation [1] was “carry out the carboxylation of fluoroacetate in a one-pot reaction to generate the fluoromalonyl-CoA”.

For `CC(C(=O)O)C(=O)SCCNC(=O)CCNC(=O)[C@H](O)C(C)(C)COP(=O)(O)OP(=O)(O)OC[C@H]1O[C@@H](n2cnc3c(N)ncnc32)[C@H](O)[C@@H]1OP(=O)(O)O` (some centres unmarked) [methylmalonyl-CoA], the “LC-MS of triketide lactone formation” value (DEBSMod6+TE) was “single round of chain elongation with its native methylmalonyl-CoA extender unit”.
